Laboratory results: patent publication US4560687A, “Substituted aromatic compounds” (priority 1979, dated 1985)
Like-named read-outs stand apart in the source and are kept apart here.

Key:
[1] = anti-malarial agents tested as anticonvulsants; Rosenburg and Bottiroli, 1964; cited from earlier work
[2] = system: Plasmadium berghei; conditions: Plasmadium berghei in mice; Rees et al, 1972; cited from earlier work
[3] = cited from earlier work; for toxicity: at curative doses
[4] = standard maximal electroshock test (anticonvulsant activity); format: in vivo; conditions: Mus musculus, po, mice
Description: The anticonvulsant activity of the compounds of the present invention was determined by a standard maximal electroshock test, that described by L. A. Woodbury and V. D. Davenport, Arch. Int. Pharmacodyn., 1952, 92, 97.

Compound | activity against malaria [2] | toxicity ([3]; Rees et al, 1972) | ED50 [4] [mg/kg] | also measured
CCN(CCO)CCCC(C)Nc1ccnc2cc(Cl)ccc12 (stereo not shown) [hydroxychloroquine] |  |  |  | anticonvulsant activity profile [1]: favourable activity profile
Nc1nnc(-c2ccc(Cl)c(Cl)c2)c(N)n1 [3,4-dichlorophenyl] | active against the malaria organism | toxic at curative doses |  | therapeutic ratio ([3]; mouse, in vivo): low therapeutic ratio
Nc1nnc(-c2ccc(C(F)(F)F)cc2)c(N)n1 [4-trifluoromethylphenyl] | still being active against malaria | less toxic than the chlorophenyl compounds |  | 
Nc1nnc(-c2ccc(Cl)cc2Cl)c(N)n1 [2,4-dichlorophenyl] | only slight antimalarial activity |  |  | 
Nc1nnc(-c2ccc(Cl)c(C(F)(F)F)c2)c(N)n1 [3,5-diamino-6-(4-chloro-3-trifluoromethylphenyl)-1,2,4-triazine] |  |  | 18.5 | 
Cc1cc(Cl)ccc1-c1nnc(N)nc1N [3,5-diamino-6-(4-chloro-2-methylphenyl)-1,2,4-triazine] |  |  | 14.8 | 
Nc1nnc(-c2ccc(Cl)cc2)c(N)n1 [4-chlorophenyl] | active against the malaria organism | toxic at curative doses |  | therapeutic ratio ([3]; malaria context, Rees et al, 1972): low therapeutic ratio
Nc1nnc(-c2cc3ccccc3cc2Cl)c(N)n1 [3,5-diamino-6-(3-chloro-2-naphthyl)-1,2,4-triazine] |  |  | 12 | 
